Patent US20050267020A1, “Polypeptides derived from inducible hsp70 and pharmaceutical compositions containing the same” (priority 2001, published 2005)

Columns and labels:
human CD8+ cells = test: Generation of CTL from human PBMC with peptide- or polyepitope-pulsed dendritic cells, intracellular IFN-γ staining; format: cell-based; conditions: CD8+ cells stimulated with peptide-loaded dendritic cells
Procedure: The three graphs entitled hCTL380, hCTL391 and hCTL393 represent respectively the testing of p380, p391 and p393-specific human CTLs. P391 and p393 specific CTLs were tested towards EBV-B cells, whereas p380 specific CTLs were tested towards T2 cells. The number of IFN-γ producing CD8+ cells for 10^5 CD8+ cells upon activation, indicated on the X-axis, was measured, as assessed by staining cells for CD8 and intracellular IFN-γ.
Polyepitope induced human CTL were tested for their capacity to respond to T2 cells loaded with p380, p391 or p393 or the irrelevant HIVpol589 peptides in intracellular IFN-γ staining. The X axis represents the number of IFNγ-producing CTL/10^5 CD8+ cells. On the Y axis, upper to lower bars represent the results obtained when cells were loaded respectively with irrelevant HIV pol589 peptides, or with p380, p391 or p393 peptides.
Generation of CTL from Human Peripheral Blood Mononuclear Cells (PBMC). Fresh PBMC collected from healthy donnors under informed consent were serologically typed for the studied HLA-class I molecule, and purified using standard Ficoll-Paque (Amersham Pharmacia Biotech AB). Dendritic cells (DC) were prepared by cultivating plastic adherent PBMC in the presence of 500 U/mL GM-CSF (R&D Systems Inc. MN) and 500 U/mL IL-4 (R&D Systems Inc. MN) for 7 days such as described in Keogh et al. (30).
DC were then maturated for 2 days with 2 μg/mL anti-CD40 antibody and 100 ng/mL Poly I:C (Sigma-Aldrich). […] Autologous CD8+ purified T-cells (CD8 MicroBeads, Miltneyi Biotec Inc. CA) were stimulated weekly with DC pulsed for two hours with peptide (10 μM) and irradiated at 35Gy at a T:DC ratio of 10:1 in culture medium (CM; RPMI 1640 supplemented with 10% human AB serum, […] L-glutamine and gentamycin). 1×10^3 U/mL IL-6 and SU/mL IL-12 (R&D Systems Inc. MN) were added during the first week of culture. 20 U/mL clinical grade IL-2 (Proleukin, Chiron Corp.) and 10 ng/mL IL-7 (R&D Systems Inc. MN) were added during the next two weeks of culture. 7 days after the last stimulation with DC, peptide specific IFN-γ secreting CD8+ T cells were magnetically sorted following encounter of the peptide presented by HLA-A*0201+ B-EBV cells (IFN-γ Secretion Assay, Miltenyi Biotec Inc. CA). The characterization of peptide-specific T cells was tested 7 days after the purification step.
Intracellular IFN-g Staining. 5×10^4 T cells were incubated with 10^5 stimulating peptide loaded EBV-B cells or with 10^5 tumor cells in the presence of 20 μg/ml brefeldin-A (Sigma, Oakville, Canada). Six hours later, they were washed, stained with r-phycoerythrin-conjugated anti-CD8 antibody (Caltag Laboratories, Burlingame, Calif.) in PBS for 25 min at 4° C., washed and fixed with 4% PFA. Then, cells were permeabilized with PBS 0.5% BSA 0.2% saponin (Sigma, Oakville, Canada), and stained with allophycocyanin-conjugated anti-IFNg mAb (PharMingen, Mississauga, Canada) for 25 min at 4° C. Cells were analyzed on FACSCalibur (Becton Dickinson, Mountain View, Calif.).

[1] = molecular target: T1, HLA-A*0201/peptide complex (Homo sapiens, UniProt P04439, D140Y/D185E/D98H/E176V/E277Q/G131W/G231S/I119V/I121R/I166T/I218V/L300P/L318F/N151K/N90K/P208A/P217A/Q86G/Q94H/R138H/R169H/T345S); test: Assessment of peptide/HLA class I complex stability (DC50); format: binding; conditions: half life (DC50) of the HLA-A*0201/peptide complex
T1 construct: Tap−/− cells expressing the studied HLA-class I molecule; endogenous in cells; host or cells: T2 cells (Tap-/-, HLA-A*0201)
Procedure: Assessment of Peptide/HLA class I Complex Stability. Tap−/− cells (10^6/mL) were incubated overnight with 100 μM of each peptide in serum-free RPMI 1640 medium supplemented with 100 ng/mL of […] at 37° C. Cells were then washed four times to remove free peptide, incubated with Brefeldin A (10 μg/mL) for 1 hour to block cell surface expression of newly synthesized HLA molecules, washed and incubated at 37° C. for 0, 2, 4 or 6 hours. Subsequently, cells were stained with the HLA specific mAb followed by FITC conjugated goat anti mouse Ig mAb. For each time point, peptide induced HLA expression was calculated as: Mean fluorescence of peptide preincubated cells—Mean fluorescence of cells treated in similar conditions in the absence of peptide. DC50 (dissociation complex; DC) was defined as the time required for the loss of 50% of the HLA-A*0201/peptide complexes stabilized at t=0.
The affinity of each peptide was assayed experimentally by determination of the Relative Affinity: the necessary peptide dose to stabilise a reference quantity of HLA-A*0201 molecules at the surface of T2 cells; and the stability of each peptide was assayed by determination of the half-life of the peptide/HLA-A*0201 molecule complex (DC50: dissociation complex 50).

Sequence | induction of specific human CTL (human CD8+ cells) | Stability (hrs) [1]
LLLLDVAPL [HSP 391] | capable of stimulating specific human CTL | >6 h hrs
LMGDKSENV [HSP 380] | capable of stimulating specific human CTL | 4 h hrs
YLGYPVTNAV [HSP 134(10)] | capable of stimulating specific human CTL | 
